Read-outs that look alike come from different tables or passages of the source.
Tests used:
Assay type in all cases: cell-based
[1] = tested on: PD1-ss+10aa/Gaussia Luciferase; experiment: Dox-Induced PD1-ss-Gluc Assay
How it was run: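 Stable cell line carrying PD1-ss+10aa/Gaussia luciferase cDNA under T-REx (doxycycline-inducible) control, plated the day before assay. Compound dilutions in DMSO/media containing doxycycline added and incubated at 37° C, 5% CO2. Undefined stereocentres: data refer to stereoisomer mixtures.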

[2] = tested on: TNFα-FL/Gaussia Luciferase; experiment: Dox Induced TNFα-FL-Gluc Assay
How it was run: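 A stable T-REx cell line carrying doxycycline-inducible TNFα-FL/Gaussia luciferase was plated the day before assay. Compound dilutions in DMSO/media containing doxycycline were then added and incubated at 37° C, 5% CO2.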

[3] = tested on: HER3-ss+4aa/Gaussia Luciferase; experiment: Dox-Induced Her3-ss-Gluc Assay
How it was run: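 Stable T-REx cell line carrying a doxycycline-regulated HER3-ss+4aa/Gaussia luciferase insert, plated the day before assay. Compound dilutions in DMSO/media with doxycycline added, then incubated at 37° C., 5% CO2. Stereoisomer mixtures tested where stereochemistry is not drawn.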

[4] = tested on: IL-2-FL/Gaussia Luciferase; experiment: Dox Induced IL2-FL-Gluc Assay
How it was run: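 Stable T-REx cell line expressing doxycycline-inducible IL-2-FL/Gaussia luciferase cDNA, plated the day before assay. Compound dilutions in DMSO/media containing doxycycline added and incubated at 37° C., 5% CO2. Unspecified stereochemistry means data refer to a stereoisomer mixture.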

[5] = tested on: human multiple myeloma cell line NCI-H929; experiment: H929 Cell Viability Assay; settings: 48 hr, NCI-H929 cells, Celltiter-Glo, read-out: 48 hr H929 Viability Celltiter-Glo: Mean EC50
Procedure: Plates were incubated at 37° C., 5% CO2 for 48 hours. After 48 hours, Celltiter-Glo® (Promega) was added to each well and luciferase signal was quantified using Tecan Infinite M1000 Pro for cell viability determination.
For chemical structures that include one or more stereoisomers, but are illustrated without indicating stereochemistry, the assay data refers to a mixture of stereoisomers.

[6] = tested on: human multiple myeloma cell line U266B1; experiment: U266 Cell Viability Assay; settings: U-266, 48 hr, U266B1 cells, Celltiter-Glo, read-out: 48 hr U266 Viability Celltiter-Glo: Mean EC50
How it was run: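 U266B1 myeloma cells treated with compound dilutions in DMSO/media for 48 h at 37 °C, 5% CO2. Viability read by CellTiter-Glo luminescence. Stereochemically undefined structures were tested as stereoisomer mixtures.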

[7] = 24 hr doxycycline induction, 293FRT/TO cells, Gaussia luciferase signal; read-out: 24 hr Dox Inducible PD1ssGluc 293FRT/TO: Mean IC50
[8] = 24 hr doxycycline induction, 293FRT/TO cells, Gaussia luciferase signal; read-out: 24 hr Dox Inducible TNFaFLGluc 293FRT/TO: Mean IC50
[9] = 24 hr doxycycline induction, 293FRT/TO cells, Gaussia luciferase signal; read-out: 24 hr Dox Inducible Her3(ss + 4)Gluc 293FRT/TO: Mean IC50
[10] = 24 hr doxycycline induction, 293FRT/TO cells, Gaussia luciferase signal; read-out: 24 hr Dox Inducible IL2FLGIuc 293FRT/TO: Mean IC50
[11] = 24 hr, doxycycline-induced, 293FRT/TO cells; read-out: 24 hr Dox Inducible PD1ssGluc 293FRT/TO: Mean IC50
[12] = 24 hr, doxycycline-induced, 293FRT/TO cells; read-out: 24 hr Dox Inducible TNFaFLGluc 293FRT/TO: Mean IC50
[13] = 24 hr, doxycycline-induced, 293FRT/TO cells; read-out: 24 hr Dox Inducible Her3(ss + 4)Gluc 293FRT/TO: Mean IC50
[14] = 24 hr, doxycycline-induced, 293FRT/TO cells; read-out: 24 hr Dox Inducible IL2FLGIuc 293FRT/TO: Mean IC50
[15] = read-out: 24 hr Dox Inducible PD1ssGluc 293FRT/TO: Mean IC50; 24 hr, doxycycline-induced, 293FRT/TO cells
[16] = read-out: 24 hr Dox Inducible TNFaFLGluc 293FRT/TO: Mean IC50; 24 hr, doxycycline-induced, 293FRT/TO cells
[17] = read-out: 24 hr Dox Inducible Her3(ss + 4)Gluc 293FRT/TO: Mean IC50; 24 hr, doxycycline-induced, 293FRT/TO cells
[18] = read-out: 24 hr Dox Inducible IL2FLGIuc 293FRT/TO: Mean IC50; 24 hr, doxycycline-induced, 293FRT/TO cells

Row | Structure (SMILES) | IC50 [1, 7] [µM] | IC50 [2, 8] [µM] | IC50 [3, 9] [µM] | IC50 [4, 10] [µM] | EC50 [5] [µM] | EC50 [6] [µM] | IC50 [1, 11] [µM] | IC50 [2, 12] [µM] | IC50 [3, 13] [µM] | IC50 [4, 14] [µM] | IC50 [1, 15] [µM] | IC50 [2, 16] [µM] | IC50 [3, 17] [µM] | IC50 [4, 18] [µM]
1 | COc1ccccc1C#Cc1csc(NC(=O)c2cccn2Cc2ccncc2)n1 [Compound A141] | 0.277 | 1.82 | 0.651 | 1.58 | 7.72 | 13.1 |  |  |  |  |  |  |  | 
2 | CC(C)OC(C)(C)c1csc(NC(=O)c2cccn2Cc2cc(F)nc(F)c2)n1 [Compound A36, 1-((2,6-difluoropyridin-4-yl)methyl)-N-(4-(2-isopropoxypropan-2-yl)thiazol-2-yl)-1H-pyrrole-2-carboxamide] | 0.698 | 21 | 1.14 | 0.896 | > 25 | > 25 |  |  |  |  |  |  |  | 
3 | O=C(Nc1nc([C@H]2C[C@H]2c2ccccc2)cs1)c1cccn1Cc1ccncc1 [Compound A200] | 0.14 | 1.61 | 0.332 | 0.251 | 15.7 | > 25 |  |  |  |  |  |  |  | 
4 | CC(C)OC(C)(C)c1csc(NC(=O)c2cccn2C(C)c2ccncc2)n1 (stereo not drawn) [Compound A61] | 1.67 | > 25 | 3.41 | 2.38 | > 25 | > 25 |  |  |  |  |  |  |  | 
5 | O=C(Nc1nc(C#Cc2ccccc2Cl)cs1)c1cccn1Cc1ccncc1 [Compound A144] | 0.151 | 0.905 | 0.395 | 0.748 | 6.86 | 10.4 |  |  |  |  |  |  |  | 
6 | CC(c1ccccc1)c1csc(NC(=O)c2cccn2Cc2ccncc2)n1 (stereo not drawn) [Compound A21] | 0.259 | 3.68 | 0.59 | 0.502 | > 25 | > 25 |  |  |  |  |  |  |  | 
7 | COc1cccc(/C=C/c2csc(NC(=O)c3cccn3Cc3ccncc3)n2)c1 [Compound A159, N-(4-(3-methoxystyryl)thiazol-2-yl)-1-(pyridin-4-ylmethyl)-1H-pyrrole-2-carboxamide] | 0.247 | 9.01 | 0.948 | 2.65 | 5.71 | 16.2 |  |  |  |  |  |  |  | 
8 | Cc1cnc(NC(=O)c2cccn2Cc2ccncc2)s1 [Compound A72, N-(5-methylthiazol-2-yl)-1-(pyridin-4-ylmethyl)-1H-pyrrole-2-carboxamide] | 2.47 | > 25 | 6.11 | 22.4 | > 25 | > 25 |  |  |  |  |  |  |  | 
9 | O=C(Nc1nc(CCc2cccc(Cl)c2)cs1)c1cccn1Cc1ccncc1 [Compound A179] | 0.211 | 3.58 | 0.541 | 1.17 | 5.75 | 10.6 |  |  |  |  |  |  |  | 
10 | O=C(Nc1nc(C2CCC(c3ccccc3)O2)cs1)c1cccn1Cc1ccncc1 (stereo not drawn) [Compound A310, N-(4-(5-phenyltetrahydrofuran-2-yl)thiazol-2-yl)-1-(pyridin-4-ylmethyl)-1H-pyrrole-2-carboxamide] |  |  |  |  | > 25 | > 25 |  |  |  |  | 2.12 | 24.6 | 5.44 | 6.99
11 | CC(C)(C)[Si](O[C@@H]1C[C@H](c2csc(NC(=O)c3cccn3Cc3ccncc3)n2)N(c2ccccc2)C1)(c1ccccc1)c1ccccc1 [Compound A322] |  |  |  |  | 0.315 | > 25 |  |  |  |  | 0.003 | 0.014 | 0.009 | 0.009
12 | CC(C)OC(C)(C)c1csc(NC(=O)c2cccn2Cc2ccn(C)c(=O)c2)n1 [Compound A127, N-(4-(2-isopropoxypropan-2-yl)thiazol-2-yl)-1-((1-methyl-2-oxo-1,2-dihydropyridin-4-yl)methyl)-1H-pyrrole-2-carboxamide] | > 25 | > 25 | > 25 | > 25 | > 25 | > 25 |  |  |  |  |  |  |  | 
13 | CC(C)OC(C)(C)c1csc(NC(=O)C2CCCC(=O)N2Cc2ccncc2)n1 (stereo not drawn) [Compound A102, N-(4-(2-isopropoxypropan-2-yl)thiazol-2-yl)-6-oxo-1-(pyridin-4-ylmethyl)piperidine-2-carboxamide] | > 25 | > 25 | > 25 | > 25 | > 25 | > 25 |  |  |  |  |  |  |  | 

Continued, in another order:

Row | IC50 [1, 7] [µM] | IC50 [2, 8] [µM] | IC50 [3, 9] [µM] | IC50 [4, 10] [µM] | EC50 [5] [µM] | EC50 [6] [µM] | IC50 [1, 11] [µM] | IC50 [2, 12] [µM] | IC50 [3, 13] [µM] | IC50 [4, 14] [µM] | Structure (SMILES) | IC50 [1, 15] [µM] | IC50 [2, 16] [µM] | IC50 [3, 17] [µM] | IC50 [4, 18] [µM]
14 | 0.44 | 3.03 | 1.26 | 1.54 | 23.9 | > 25 |  |  |  |  | O=C(Nc1nc(C2Cc3ccccc3O2)cs1)c1cccn1Cc1ccncc1 (stereo not drawn) [Compound A288] |  |  |  | 
15 |  |  |  |  | 23.7 | > 25 | 0.068 | > 25 | 0.952 | 1.4 | O=C(Nc1nc(/C=C/c2ccc(F)cn2)cs1)c1cccn1Cc1ccncc1 [Compound A342] |  |  |  | 
16 | 1.35 | 7.18 | 3.07 | 3.87 | 23 | > 25 |  |  |  |  | O=C(Nc1nc(C2CCc3ccccc3O2)cs1)c1cccn1Cc1ccncc1 (stereo not drawn) [Compound A283] |  |  |  | 
17 | 2.99 | 21.5 | 14.9 | 8.6 | 13.4 | 19.7 |  |  |  |  | O=C(Nc1nc(/C=C/c2ccoc2)cs1)c1cccn1CCCc1ccncc1 [Compound A232, N-(4-(2-(furan-3-yl)vinyl)thiazol-2-yl)-1-(3-(pyridin-4-yl)propyl)-1H-pyrrole-2-carboxamide] |  |  |  | 
18 |  |  |  |  | > 25 | > 25 | 0.066 | 2.82 | 0.251 | 0.687 | Cc1sc(NC(=O)c2cccn2Cc2ccncc2)nc1/C=C/c1ccccc1 [Compound A297] |  |  |  | 
19 |  |  |  |  | 7.18 | 15.9 | 0.017 | 3.62 | 0.492 | 1.15 | O=C(Nc1nc(/C=C/c2ccc(C(F)(F)F)cn2)cs1)c1cccn1Cc1ccncc1 [Compound A343] |  |  |  | 
20 |  |  |  |  | > 25 | > 25 | > 25 | > 25 | > 25 | > 25 | CN(C)Cc1csc(NC(=O)c2cccn2Cc2ccncc2)n1 [Compound B19] |  |  |  | 
21 |  |  |  |  | 0.381 | 16.5 | 0.009 | 0.105 | 0.012 | 0.014 | O=C(Nc1nc([C@H]2CCCN2c2ccc3c(c2)OC(F)(F)O3)cs1)c1cccn1Cc1ccncc1 [Compound A328] |  |  |  | 
22 | 0.513 | > 25 | 3.12 | 8.04 | 22.3 | > 25 |  |  |  |  | CC(=O)Nc1ccc(/C=C/c2csc(NC(=O)c3cccn3Cc3ccncc3)n2)cc1 [Compound A223, N-(4-(4-acetamidostyryl)thiazol-2-yl)-1-(pyridin-4-ylmethyl)-1H-pyrrole-2-carboxamide] |  |  |  | 
23 | 0.506 | 11.2 | > 25 | 7.07 | 16.8 | > 25 |  |  |  |  | NC(=O)c1ccc(/C=C/c2csc(NC(=O)c3cccn3Cc3ccncc3)n2)cc1 [Compound A231] |  |  |  | 

Source: US20220153732A1, “PROTEIN SECRETION INHIBITORS” (KEZAR LIFE SCIENCES, priority 2019, published 2022)
